Source: patent publication US20140349970A1 (ABBVIE INC., priority 2009, published 2014)
Like-named read-outs stand apart in the source and are kept apart here.

Target: T1, Syk catalytic domain (aa 356-635 with a C-terminal His-tag) (Homo sapiens, UniProt P43405)
T1 construct: His-tag (C); made in house
Assay: In vitro Syk kinase activity measured by trFRET, Syk catalytic domain
Type: biochemical
Description: In Vitro Syk Kinase Activity Measured by Time-Resolved Fluorescence Resonance Energy Transfer (trFRET)
0.14 nM purified Syk catalytic domain (aa 356-635 with a C-terminal His-tag purified in-house by immobilized metal ion affinity chromatography) was mixed with 0.2 μM peptide substrate (biotin-TYR1, Sequence: Biotin-(Ahx)-GAEEEIYAAFFA-COOH) at varying inhibitor concentrations in reaction buffer: 50 mM MOPSO pH 6.5, 10 mM MgCl2, 2 mM MnCl2, 2.5 mM DTT, 0.01% BSA, 0.1 mM Na3VO4 and 0.001 mM ATP. After about 60 min incubation at rt, the reaction was quenched by addition of EDTA (final concentration: 100 mM) and developed by addition of revelation reagents (final approximate concentrations: 30 mM HEPES pH 7.0, 0.06% BSA, 0.006% Tween-20, 0.24 M KF, 80 ng/mL PT66K (europium labeled anti-phosphotyrosine antibody cat #61T66KLB Cisbio, Bedford, Mass.) and 0.6 μg/mL SAXL (Phycolink streptavidin-allophycocyanin acceptor, cat #PJ255, Prozyme, San Leandro, Calif.). The developed reaction was incubated in the dark either at about 4° C. for about 14 h or for about 60 min at rt, then read via a time-resolved fluorescence detector (Rubystar, BMG) using a 337 nm laser for excitation and monitoring emission wavelengths at 665 nm. Within the linear range of the assay, the observed signal at 665 nm was directly related to phosphorylated product and can be used to calculate the IC50 values.
MOPSO buffer contains: 50 mM MOPSO pH 6.5, 10 mM MgCl2, 2 mM MnCl2, 2.5 mM DTT, 0.01% BSA, and 0.1 mM Na3VO4 HEPES buffer contains: 50 mM HEPES pH 7.1, 2.5 mM DTT, 10 mM MgCl2, 2 mM MnCl2, 0.01% BSA, and 0.1 mM Na3VO4 MOPS buffer contains: 20 mM MOPS pH 7.2, 10 mM MgCl2, 5 mM EGTA, 5 mM Beta-phosphoglycerol, 1 mM Na3VO4, 0.01% Triton-X-100 and 1 mM DTT
Biotin-TYR1-peptide sequence: Biotin-(Ahx)-GAEEEIYAAFFA-COOH Biotin-TYR2-peptide sequence: Biotin-(Ahx)-AEEEYFFLFA-amide KinEASE 51 peptides were purchased from Cisbio (cat #62ST0PEB, Bedford, Mass.)
PT66K was purchased from Cisbio (cat #61T66KLB, Bedford, Mass.) EuSTK was purchased from Cisbio (cat #62ST0PEB, Bedford, Mass.) SAXL was purchased from Prozyme (cat #PJ25S, San Leandro, Calif.) Human T-Blasts IL-2 pSTAT5 Cellular Assay

[1] = Syk catalytic domain (aa 356-635), trFRET, 0.001 mM ATP

Row | IC50 [1] | IC50 | Structure (SMILES)
1 | < 100 nM |  | COc1ccc2c(c1)c(-c1cc3c(ncc4cnc(CCCO)n43)[nH]1)cn2C [M.1.7]
2 | 100 to 1000 nM |  | COc1ccc(-c2nc(C)n3c2cnc2[nH]ccc23)cc1C(N)=O [J.1.7.4]
3 | 100 to 1000 nM |  | Cn1ncc2cnc3[nH]c(-c4ccc5ncccc5c4)cc3c21 [N.2.7]
4 | 1000 to 10000 nM |  | COc1ccc(-c2nc(N3CCN(C)CC3)n3c2cnc2[nH]ccc23)cc1 [N.1.85]
5 |  | 100 to 1000 nM | Cc1nc(-c2ccc(OCC(=O)O)cc2)c2cnc3[nH]ccc3n12 [AC.1.16]
6 | 100 to 1000 nM |  | CCc1c[nH]c2ncc3c(-c4ccsc4)nn(C)c3c12 [N.1.73]
7 |  | 100 to 1000 nM | Cc1nc(-c2ccc(CO)cc2)c2cnc3[nH]ccc3n12 [AC.1.34]
8 |  | < 100 nM | COc1c(C)cc(-c2nc(C)n3c2cnc2[nH]ccc23)cc1C [AC.1.25]
9 |  | 100 to 1000 nM | COc1ccc(-c2nc(C)n3c2cnc2[nH]ccc23)cc1Cl [AC.1.42]
10 | 1000 to 10000 nM |  | CCc1c(-c2ccc(OCCN(C)C)cc2)[nH]c2ncc3cnn(C)c3c12 [N.1.80]
11 |  | 100 to 1000 nM | CC(C)S(=O)(=O)c1ccc(-c2nc(C3CCCCC3)n3c2cnc2[nH]ccc23)cc1 [AC.3.30]
12 | 1000 to 10000 nM |  | Cc1ccc(-c2nc(C)n3c2cnc2[nH]ccc23)c2cc[nH]c12 [N.1.57]
13 | < 100 nM |  | CN(C)C(=O)c1ccc2c(c1)c(-c1cc3c(ncc4cnn(C)c43)[nH]1)cn2C [J.1.8.4]
14 | 1000 to 10000 nM |  | CCc1c[nH]c2ncc3c(-c4ccc5nccnc5c4)nn(C)c3c12 [N.1.68]
15 | 100 to 1000 nM |  | CNC(=O)Cc1cccc(-c2cc3c(ncc4cnn(C)c43)[nH]2)c1 [N.1.9]
16 | > 10000 nM |  | CN1CCN(C(=O)Cn2cccc2-c2cc3c(ncc4cnn(C)c43)[nH]2)CC1 [J.2.3.3]
17 |  | < 100 nM | CC(C)(O)c1ccc(-c2nc(C3CC3)n3c2cnc2[nH]ccc23)cc1 [AC.5.8]

Row | IC50 [1] | IC50 | Structure (SMILES)
18 | 100 to 1000 nM |  | CC(C)(O)c1ccc(-c2nc([C@@H]3CCCC[C@H]3CN)n3c2cnc2[nH]ccc23)cc1 (racemic) [N.1.78]
19 | 1000 to 10000 nM |  | Cc1cc(C(C)(C)O)ccc1-c1nc(C)n2c1cnc1[nH]ccc12 [N.1.104]
20 |  | 100 to 1000 nM | Cc1nc(-c2ccc(C(C)(C)O)nc2)c2cnc3[nH]ccc3n12 [AC.1.24]
21 |  | < 100 nM | Cc1cc(-c2nc(C)n3c2cnc2[nH]ccc23)ccc1N1CCOCC1 [AC.1.27]
22 | 100 to 1000 nM |  | CS(=O)(=O)c1ccc(-c2nc(CC3CNCCO3)n3c2cnc2[nH]ccc23)cc1 (stereo not shown) [N.1.94]
23 | < 100 nM |  | COc1ccc2c(c1)c(-c1cc3c(ncc4cnc(CCC#N)n43)[nH]1)cn2C [M.1.13]
24 |  | < 100 nM | COc1ccc(-c2ncn3c2cnc2[nH]ccc23)cc1Cl [AC.4.9]
25 | 100 to 1000 nM |  | CC(C)(O)c1ccc(-c2nc(C(F)(F)F)n3c2cnc2[nH]ccc23)cc1 [N.1.58]
26 | 1000 to 10000 nM |  | CCc1c(-c2cnn(C)c2C)[nH]c2ncc3cnn(C)c3c12 [N.1.38]
27 | 100 to 1000 nM |  | CN(C)CC(=O)NCc1cccc(-c2cc3c(ncc4cnn(C)c43)[nH]2)c1 [J.1.1.1]
28 | > 10000 nM |  | CS(=O)(=O)c1ccc(-n2c(=O)n(C3CCCCC3)c3c4cc[nH]c4ncc32)cc1 [M.1.24]
29 | < 100 nM |  | CN(C)S(=O)(=O)c1cccc(-c2cc3c(ncc4cnn(C)c43)[nH]2)c1 [N.1.32]
30 | 1000 to 10000 nM |  | CC(C)(O)c1ccc(-c2nc(-c3cccnc3C#N)n3c2cnc2[nH]ccc23)cc1 [Example 6, 3-(3-(4-(2-Hydroxypropan-2-yl)phenyl)-6H-imidazo[1,5-a]pyrrolo[2,3-e]pyrazin-1-yl)picolinonitrile]
31 | < 100 nM |  | Cn1ncc2cnc3[nH]c(-c4ccc(OCCCN5CCOCC5)cc4)cc3c21 [N.2.5]
32 | < 100 nM |  | COc1ccc2c(c1)c(-c1cc3c(ncc4cnc([C@@H]5CC[C@H](NC(C)=O)C5)n43)[nH]1)cn2C [J.2.1.9]
33 |  | > 10000 nM | Cc1nc(-c2cccc3nccnc23)c2cnc3[nH]ccc3n12 [AC.1.5]
34 | 100 to 1000 nM |  | COc1ccc2c(c1)c(-c1cc3c(ncc4cnc(CN)n43)[nH]1)cn2C [T.2.1, (7-(5-Methoxy-1-methyl-1H-indol-3-yl)-6H-imidazo[1,5-a]pyrrolo[2,3-e]pyrazin-1-yl)methanamine]
